What was measured:
[1] = test system: EJ bladder carcinoma and U2OS osteosarcoma cell lines; assay: DNA damage in EJ bladder carcinoma and U2OS osteosarcoma cell lines; assay type: cell-based, human
Text: (§1) The conditions and time of exposure are indicated in the legend of the figure.

[2] = test system: immortalized human breast epithelial cells; assay: DNA damage markers in immortalized human breast epithelial cells; assay type: cell-based; conditions: taxol 10 nM
Text: as §1

MMTV-PyVT mammary tumor = assay: MMTV-PyVT spontaneous mammary tumor mouse model; assay type: in vivo
Text: MMTV-PvVT (FVB/N-Tg) transgenic mice develop multifocal mammary tumor (from hyperplasia to metastatic) with a high incidence of metastasis (Mice were obtained from the NCI repository). This mouse model has been widely used for the correlation studies of human cancer (Guy et al., Moll. Cell. Biol. 12: 954-961, 1992). In addition, this onco-mouse model has been used to evaluate the effectiveness of potential drug therapies. Generally, due to aggressiveness of tumor growth and spread in this mouse-model, only a combination of chemo-drugs is effective in tumor growth inhibition. MMTV-PyVT mice were maintained until mammary tumor size reached to 6 mm, and then piperlongumine (2.4 mg/kg) or vehicle (DMSO) was given daily by i.p. for 13 days. Tumor size was measured every 4 days (See FIGS. 31 and 32).
We compared the anti-tumor activity of piperlongumine (SP2007) with taxol, a well known chemo drug, in the MMTV-PyVT tumor mouse model as described above (8 mice per group). When tumor sizes grew to ˜5-6 mm in diameter, SP2007 (2.4 mg/kg/day) or Taxol (Paclitaxel, 10 mg/kg/day) was administered intraperitoneally (I.P.) daily for two weeks. After two weeks treatment, mice were sacrificed, and mammary tumors excised and the tumor sizes measured. […] The size of the grossly dissected tumors was measured using the formula: mean diameter=(A+B)/2.

[3] = test system: EJ bladder carcinoma cells; assay: Persistent effects after removal of the compound in EJ cells; assay type: cell-based, human; conditions: 3 hrs treatment, washed, another 6 hrs in medium without compound
Procedure: EJ bladder carcinoma cells were treated with SP2007 (P10: 10 μM and P20: 20 μM), taxol (T10: 10 nM and T20: 20 nM) or DMSO vehicle control for either 20 hrs or 3 hrs. For the 20 hrs experiment, the percentages of remaining living cells ware measured on the end of the 20 hrs treatment time point. […] For the 3 hrs experiment, cells were washed 3 times with PBS after treatment with the and incubated for another 6 hrs in growing medium without SP2007, taxol or DMSO.

p53 = p53 acetylation Western blot in U2OS cells; assay type: cell-based, human; conditions: 6 hours, TSA 10 mM
Procedure: U2OS cells were treated with piperlongumine (SP), the HDAC inhibitor TSA (trichostatin A ([…])) or the control DMSO for 6 hours. Cell extracts were fractionated in SDS-PAGE gel and analyzed by western blot.

COc1cccc2c1C(=O)c1c(O)c3c(c(O)c1C2=O)C[C@@](O)(C(=O)CO)C[C@@H]3O[C@H]1C[C@H](N)[C@H](O)[C@H](C)O1 [adrimycin, reference compound]
DNA damage (phosphorylated gamma-H2AX levels) [1]: results in the induction of DNA damage

CC(=O)O[C@H]1C(=O)[C@@]2(C)[C@H]([C@H](OC(=O)c3ccccc3)[C@]3(O)C[C@H](OC(=O)[C@H](O)[C@@H](NC(=O)c4ccccc4)c4ccccc4)C(C)=C1C3(C)C)[C@]1(OC(C)=O)CO[C@@H]1C[C@@H]2O [Taxol, reference compound]
phosphorylated gamma-H2AX and p53 [2]: results in the induction | secondary tumors (MMTV-PyVT mammary tumor; SP2007 2.4 mg/kg/day or Taxol 10 mg/kg/day i.p. for two weeks): moderate and secondary tumors appeared | deaths during treatment (MMTV-PyVT mammary tumor; Taxol 10 mg/kg/day i.p. daily for two weeks): two of the Taxol-treated mice died at day 10 | killing of cancer cells after removal of the compound [3]: significantly weakened

CC(/C=C/C(=O)NO)=C\[C@@H](C)C(=O)c1ccc(N(C)C)cc1 [TSA, reference compound]
total amount of p53 (p53): did not increase
